Results on 46 molecules are retold here after ChEMBL document CHEMBL1144588, “Synthesis and SAR of 3,5-diamino-piperidine derivatives: novel antibacterial translation inhibitors as aminoglycoside mimetics” (Bioorg Med Chem Lett, 2007).

≈ marks a conversion by molar mass, not a printed value.

For assay [1], the system named is Staphylococcus aureus. Briefly: Antibacterial activity against Staphylococcus aureus ATCC 25923. Format: functional.
For assay [2], the system named is Pseudomonas aeruginosa. Put plainly: Antimicrobial activity against Pseudomonas aeruginosa. Format: functional.
The subject of assay [3] is Escherichia coli. Put plainly: Inhibition of protein synthesis in Escherichia coli by coupled transcription-translation assay. Format: functional, organism-based.

As for `N[C@@H]1C[C@H](N)CN(c2nc(Nc3ccc(NC(=O)c4ccc(Cl)cc4)c(O)c3)nc(N3C[C@H](N)C[C@H](N)C3)n2)C1`, the MIC (commonly the least concentration at which growth counts as inhibited) in assay [1] was determined as 16 µg/mL (≈ 28.2 µM). Further, the MIC90 – broadly, an inhibitory concentration at the 90% level, which refers to growth in some studies and to a panel of isolates in others – in assay [2] stood at 8 µg/mL (≈ 14.1 µM).
Take `N[C@@H]1C[C@H](N)CN(c2nc(Nc3ccc(Cl)c(Cl)c3)nc(N3C[C@H](N)C[C@H](N)C3)n2)C1`: the IC50 (in general, the concentration at which inhibition is half-maximal) in assay [3] amounted to 10 µM.
The same measure, in the same setting: the value for `NC1CCCN(c2nc(Nc3ccc(Cl)c(Cl)c3)nc(N3CCCC(N)C3)n2)C1` (centres undefined) was over 1000 µM.
Same read-out and setting: the value for `N[C@@H]1C[C@H](N)CN(c2ncnc(Nc3ccc(NC(=O)c4ccc5ccccc5c4O)cc3)n2)C1` was 16 µM.
In assay [3], `NCCN(CCN)c1nc(Nc2ccc(NC(=O)c3ccc(Cl)cc3)c(O)c2)nc(N2C[C@H](N)C[C@H](N)C2)n1` gave an IC50 of 18 µM. The same molecule returned an MIC in assay [1] of 32 µg/mL (≈ 57.5 µM).
The molecule `N[C@@H]1C[C@H](N)CN(c2nc(Nc3ccc(NC(=O)c4ccc5ccccc5c4O)cc3)nc(N3C[C@@H](N)C[C@H]3CO)n2)C1` showed an IC50 in assay [3] of 19 µM. Moreover, the MIC in assay [1] came out at 8 µg/mL (≈ 13.7 µM).
For the molecule `NC1CN(c2nc(Nc3ccc(NC(=O)c4ccc(Cl)cc4)c(O)c3)nc(N3C[C@H](N)C[C@H](N)C3)n2)C1`, the IC50 in assay [3] is 14 µM. This lies in the double-digit micromolar range.
The same measure, in the same setting: as for `NC(=O)C1CCN(c2nc(Nc3ccc(NC(=O)c4ccc(Cl)cc4)c(O)c3)nc(N3C[C@H](N)C[C@H](N)C3)n2)CC1`, the figure is over 1000 µM.
For the molecule `Cc1ccc(S(=O)(=O)N(Cc2ccccc2)c2ccc(Nc3nc(N4C[C@H](N)C[C@H](N)C4)nc(N4C[C@@H](N)[C@@H](N)C4)n3)cc2O)cc1`, in assay [3], the midpoint of inhibition, the IC50, lay at 36 µM. In assay [1], this molecule yielded an MIC of 16 µg/mL (≈ 24.2 µM).
In turn, `NC[C@H]1[C@@H](O)CCN1c1nc(Nc2ccc(NC(=O)c3ccc4ccccc4c3O)cc2)nc(N2C[C@H](N)C[C@H](N)C2)n1` came in with an IC50 in assay [3] of 10 µM. In assay [1], this molecule yielded a minimum inhibitory concentration (MIC) of 16 µg/mL (≈ 27.4 µM).
The corresponding values for `N[C@@H]1C[C@H](N)CN(c2nc(Nc3ccc(NC(=O)c4ccc5ccccc5c4O)cc3)nc(N3CCCC(O)C3)n2)C1` (some centres undefined) are 310 µM and 16 µg/mL (≈ 28.1 µM).
In assay [3], `Cc1ccc(S(=O)(=O)N(Cc2ccccc2)c2ccc(Nc3nc(N4CCC(C(N)=O)CC4)nc(N4C[C@H](N)C[C@H](N)C4)n3)cc2O)cc1` returned an IC50 of over 1000 µM.
`NC[C@H]1[C@@H](O)CCN1c1nc(Nc2ccc(NC(=O)c3ccc(Cl)cc3)c(O)c2)nc(N2C[C@H](N)C[C@H](N)C2)n1` gave an IC50 in assay [3] of 19 µM. In assay [1], this molecule came in with an MIC of 32 µg/mL (≈ 56.2 µM).
`N[C@@H]1C[C@H](N)CN(c2nc(Nc3ccc(NC(=O)c4ccc(Cl)cc4)c(O)c3)nc(N3CCCC(O)C3)n2)C1` (some centres undefined): the IC50 in assay [3] worked out at 40 µM. Moreover, inhibition of growth in assay [1] (MIC) required 32 µg/mL (≈ 57.8 µM).
`Cc1ccc(S(=O)(=O)N(Cc2ccccc2)c2ccc(Nc3nc(N4CCCC(O)C4)nc(N4C[C@H](N)C[C@H](N)C4)n3)cc2O)cc1` (some centres undefined): in assay [3], the IC50 was 44 µM. In assay [1], this molecule yielded an MIC of 8 µg/mL (≈ 12.1 µM).
Molecule `NC[C@@H]1CN(c2nc(Nc3ccc(NC(=O)c4ccc5ccccc5c4O)cc3)nc(N3C[C@H](N)C[C@H](N)C3)n2)CC[C@@H]1O` yielded an IC50 in assay [3] of 21 µM. The same molecule showed an MIC in assay [1] of 16 µg/mL (≈ 26.7 µM).
The corresponding values for `Cc1ccc(S(=O)(=O)N(Cc2ccccc2)c2ccc(Nc3nc(N4C[C@H](N)C[C@H](N)C4)nc(N4CC[C@H](O)[C@H](CN)C4)n3)cc2O)cc1` are 27 µM and 16 µg/mL (≈ 23.2 µM).
Take `Cc1ccc(S(=O)(=O)N(Cc2ccccc2)c2ccc(Nc3nc(N4C[C@H](N)C[C@H](N)C4)nc(N4C[C@@H](O)[C@@H](O)C4)n3)cc2O)cc1`: it took 43 µM to reach half-maximal inhibition in assay [3] (IC50). In assay [1], this molecule registered a minimum inhibitory concentration (MIC) of 32 µg/mL (≈ 48.4 µM).
The corresponding values for `Cc1ccc(S(=O)(=O)N(Cc2ccccc2)c2ccc(Nc3nc(N4CC(N)C4)nc(N4C[C@H](N)C[C@H](N)C4)n3)cc2O)cc1` are 11 µM and 160 µg/mL (≈ 254 µM).
In turn, `NCCN(CCN)c1nc(Nc2ccc(NC(=O)c3ccc4ccccc4c3O)cc2)nc(N(CCN)CCN)n1` came in with an IC50 in assay [3] of 7 µM.
On to `CN[C@@H]1C[C@H](NC)CN(c2nc(Nc3ccc(Cl)c(Cl)c3)nc(N3C[C@H](NC)C[C@H](NC)C3)n2)C1`, for which the IC50 in assay [3] was 5 µM.
`N[C@@H]1C[C@H](N)CN(c2nc(Nc3ccc(NC(=O)c4ccc(Cl)cc4)c(O)c3)nc(N3C[C@@H](O)[C@@H](O)C3)n2)C1` registered an IC50 in assay [3] of 77 µM. This molecule returned an MIC in assay [1] of 64 µg/mL (≈ 115 µM).
The molecule `N[C@@H]1C[C@H](N)CN(c2nc(Nc3ccc(NC(=O)c4ccc5ccccc5c4O)cc3)nc(N3C[C@H](N)C[C@H](N)C3)n2)C1` showed an IC50 in assay [3] of 7 µM.
As to `Cc1ccc(S(=O)(=O)N(Cc2ccccc2)c2ccc(Nc3nc(N4C[C@H](N)C[C@H](N)C4)nc(N4C[C@H](N)C[C@H](N)C4)n3)cc2O)cc1`, the IC50 in assay [3] came to 3 µM. The same molecule came in with an MIC in assay [1] of 8 µg/mL (≈ 11.9 µM).
The like results for `N[C@@H]1C[C@H](N)CN(c2nc(Nc3ccc(NC(=O)c4ccc(Cl)cc4)c(O)c3)nc(N3C[C@@H](N)C[C@@H](O)C3)n2)C1` were, in that order, 40 µM and 64 µg/mL (≈ 112 µM).
Molecule `NC[C@@H]1CN(c2nc(Nc3ccc(NC(=O)c4ccc(Cl)cc4)c(O)c3)nc(N3C[C@H](N)C[C@H](N)C3)n2)CC[C@@H]1O` had an IC50 in assay [3] of 31 µM. Also, the lowest concentration to inhibit growth in assay [1] (MIC) was 32 µg/mL (≈ 54.9 µM).
The corresponding values for `N[C@@H]1C[C@H](N)CN(c2nc(Nc3ccc(NC(=O)c4ccc5ccccc5c4O)cc3)nc(N3C[C@@H](N)C[C@@H](O)C3)n2)C1` are 17 µM and 8 µg/mL (≈ 13.7 µM).
`Cc1ccc(S(=O)(=O)N(Cc2ccccc2)c2ccc(Nc3nc(N4C[C@H](N)C[C@H](N)C4)nc(N4C[C@@H](N)C[C@@H](O)C4)n3)cc2O)cc1` had an IC50 in assay [3] of 17 µM. The lowest concentration to inhibit growth in assay [1] (MIC) was 16 µg/mL (≈ 23.7 µM).
In turn, `N[C@@H]1C[C@H](N)CN(c2nc(Nc3ccc(NC(=O)c4ccc(Cl)cc4)c(O)c3)nc(N3C[C@@H](N)C[C@H]3CO)n2)C1` gave an IC50 in assay [3] of 13 µM. Further, the minimum inhibitory concentration (MIC) in assay [1] came to 32 µg/mL (≈ 56.2 µM).
`N[C@@H]1C[C@H](N)CN(c2nc(Nc3ccc(NC(=O)c4ccc(Cl)cc4)c(O)c3)nc(N3C[C@@H](N)[C@@H](N)C3)n2)C1` had an IC50 in assay [3] of 58 µM. In addition, it took 16 µg/mL (≈ 28.9 µM) to inhibit growth in assay [1] (MIC).
The molecule `N[C@@H]1C[C@H](O)CN(c2nc(Nc3ccc(NC(=O)c4ccc5ccccc5c4O)cc3)nc(N3C[C@@H](N)C[C@@H](O)C3)n2)C1` displayed an IC50 in assay [3] of 100 µM.
`NC[C@@H]1C[C@H](N)CN1c1nc(Nc2ccc(NC(=O)c3ccc4ccccc4c3O)cc2)nc(N2C[C@H](N)C[C@H](N)C2)n1` came in with an IC50 in assay [3] of 10 µM. Besides, the MIC in assay [1] came to 2 µg/mL (≈ 3.43 µM).
With `Cc1ccc(S(=O)(=O)N(Cc2ccccc2)c2ccc(Nc3nc(N(CCN)CCN)nc(N4C[C@H](N)C[C@H](N)C4)n3)cc2O)cc1`, in assay [3], the IC50 came to 1 µM. This molecule also showed an MIC in assay [1] of 8 µg/mL (≈ 12.1 µM).
The like results for `Cc1ccc(S(=O)(=O)N(Cc2ccccc2)c2ccc(Nc3nc(N4C[C@H](N)C[C@H](N)C4)nc(N4C[C@@H](N)C[C@H]4CN)n3)cc2O)cc1` were, in that order, 13 µM and 2 µg/mL (≈ 2.97 µM).
The like results for `Cc1ccc(S(=O)(=O)N(Cc2ccccc2)c2ccc(Nc3nc(N4C[C@H](N)C[C@H](N)C4)nc(N4C[C@@H](N)C[C@H]4CO)n3)cc2O)cc1` were, in that order, 15 µM and 8 µg/mL (≈ 11.9 µM).
Molecule `NC[C@@H]1C[C@H](N)CN1c1nc(Nc2ccc(NC(=O)c3ccc4ccccc4c3O)cc2)nc(N2C[C@H](N)C[C@@H]2CN)n1` showed an IC50 in assay [3] of 8 µM.
For the molecule `Cc1ccc(S(=O)(=O)N(Cc2ccccc2)c2ccc(Nc3nc(N4C[C@H](N)C[C@H](N)C4)nc(N4CC[C@H](O)[C@@H]4CN)n3)cc2O)cc1`, it took 21 µM to reach half-maximal inhibition in assay [3] (IC50). In assay [1], inhibition of growth (MIC) required 8 µg/mL (≈ 11.9 µM).
In assay [3], `NC1CCN(c2nc(Nc3ccc(Cl)c(Cl)c3)nc(N3CCC(N)CC3)n2)CC1` yielded an IC50 of 800 µM.
For the molecule `CN[C@@H]1C[C@H](NC)CN(c2nc(Nc3ccc(NC(=O)c4ccc5ccccc5c4O)cc3)nc(N3C[C@H](N)C[C@H](N)C3)n2)C1`, half-maximal inhibition in assay [3] (IC50) was put at 8 µM. The molecule further gave an MIC in assay [1] of 8 µg/mL (≈ 13.1 µM).
The corresponding values for `NC[C@@H]1C[C@H](CN)CN(c2nc(Nc3ccc(NC(=O)c4ccc5ccccc5c4O)cc3)nc(N3C[C@H](N)C[C@H](N)C3)n2)C1` are 8 µM and 4 µg/mL (≈ 6.54 µM).
The like results for `NC[C@@H]1C[C@H](CN)CN(c2nc(Nc3ccc(NC(=O)c4ccc(Cl)cc4)c(O)c3)nc(N3C[C@H](N)C[C@H](N)C3)n2)C1` were, in that order, 11 µM and 16 µg/mL (≈ 26.8 µM).
The like results for `NC[C@@H]1C[C@H](N)CN1c1nc(Nc2ccc(NC(=O)c3ccc(Cl)cc3)c(O)c2)nc(N2C[C@H](N)C[C@H](N)C2)n1` were, in that order, 12 µM and 32 µg/mL (≈ 56.3 µM).
In assay [3], `N[C@@H]1C[C@H](N)CN(c2nc(Nc3ccc(NC(=O)c4ccc5ccccc5c4O)cc3)nc(N3C[C@@H](O)[C@@H](O)C3)n2)C1` had an IC50 of 72 µM. The MIC in assay [1] came to 32 µg/mL (≈ 56 µM).
The like results for `Cc1ccc(S(=O)(=O)N(Cc2ccccc2)c2ccc(Nc3nc(N4C[C@H](N)C[C@H](N)C4)nc(N4C[C@H](CN)C[C@H](CN)C4)n3)cc2O)cc1` were, in that order, 1 µM and 8 µg/mL (≈ 11.4 µM).
The like results for `NCCN(CCN)c1nc(Nc2ccc(NC(=O)c3ccc4ccccc4c3O)cc2)nc(N2C[C@H](N)C[C@H](N)C2)n1` were, in that order, 10 µM and 8 µg/mL (≈ 14 µM).
`O=C(N[C@H](CO)[C@H](O)c1ccc([N+](=O)[O-])cc1)C(Cl)Cl` [CHLORAMPHENICOL] registered an MIC in assay [1] of 8 µg/mL (≈ 24.8 µM).
